Common to all, as to assay type: in vivo
Test [1] concerns Spodoptera frugiperda. Nature of the test: Spodoptera frugiperda spray test (maize leaf discs, caterpillars). Particulars: foliar, 168 h, Aufwandmenge 500g/ha, after 7 days, read-out: Wirkung. The text has this:
(§1) Zur Herstellung einer zweckmäßigen Wirkstoffzubereitung löst man 1 Gewichtsteil Wirkstoff mit den angegebenen Gewichtsteilen Lösungsmittel und füllt mit Wasser, welches eine Emulgatorkonzentration von 1000 ppm enthält, bis zum Erreichen der gewünschten Konzentration auf. Zur Herstellung weiterer Testkonzentrationen wird mit emulgatorhaltigem Wasser verdünnt.
Maisblattscheiben (Zea mays) werden mit einer Wirkstoffzubereitung der gewünschten Konzentration gespritzt und nach dem Abtrocknen mit Raupen des Heerwurms (Spodoptera frugiperda) besetzt.
Nach 7 Tagen wird die Wirkung in % bestimmt. Dabei bedeutet 100 %, dass alle Raupen abgetötet wurden; 0 % bedeutet, dass keine Raupe abgetötet wurde.

The test system of test [2] is Phaedon cochleariae. Nature of the test: Phaedon cochleariae spray test (Chinese cabbage leaf discs, larvae). As to conditions: foliar, 168 h, read-out: Wirkung.
Excerpt: as §1
Chinakohlblattscheiben (Brassica pekinensis) werden mit einer Wirkstoffzubereitung der gewünschten Konzentration gespritzt und nach dem Abtrocknen mit Larven des Meerrettichblattkäfers (Phaedon cochleariae) besetzt.
Nach 7 Tagen wird die Wirkung in % bestimmt. Dabei bedeutet 100 %, dass alle Käferlarven abgetötet wurden; 0 % bedeutet, dass keine Käferlarven abgetötet wurden.

The test system of test [3] is Ctenocephalides felis. Nature of the test: Ctenocephalides felis oral test (feeding on treated citrated cattle blood). As to conditions: 48 h, Aufwandmenge 100ppm, after 2 days, read-out: Wirkung (Abtötung). Here is the method:
Zwecks Herstellung einer zweckmäßigen Wirkstoffzubereitung vermischt man 10 mg Wirkstoff mit 0,5 ml Dimethylsulfoxid. Durch Verdünnen mit citriertem Rinderblut erhält man die gewünschte Konzentration.
Ca. 20 nüchterne adulte Katzenflöhe (Ctenocephalides felis) werden in eine Kammer eingesetzt, die oben und unten mit Gaze verschlossen ist. Auf die Kammer wird ein Metallzylinder gestellt, dessen Unterseite mit Parafilm verschlossen ist. Der Zylinder enthält die Blut-Wirkstoffzubereitung, die von den Flöhen durch die Parafilmmembran aufgenommen werden kann.
Nach 2 Tagen wird die Abtötung in % bestimmt. Dabei bedeutet 100 %, dass alle Flöhe abgetötet wurden; 0 % bedeutet, dass keiner der Flöhe abgetötet wurde.

Regarding `N#CC1(C(=O)Nc2cc(-c3ccc(C(F)(F)C(F)(F)F)c(F)c3)cc(NC(=O)C3CC3)n2)CC1` [I-057], in test [1], the mortality at 500 g/ha stood at 100%.

Turning to `O=C(Nc1cc(-c2c(F)cc(C(F)(F)C(F)(F)F)c(F)c2F)cc(NC(=O)C2CC2)n1)C1CC1` [I-062], the mortality at 500 g/ha in test [1] and in test [2] was 100% in each case.

On to `Cc1cc(-c2cc(NC(=O)C3CC3)nc(NC(=O)C3CC3)c2)cc(F)c1C(F)(F)C(F)(F)F` [I-040], for which the mortality at 500 g/ha in test [1] and in test [2] was 100% each time.

With `CC1(C(=O)Nc2cc(-c3ccc(OC(F)(F)F)cc3)cc(NC(=O)C3CC3)n2)CCCC1` [I-011], in test [1], the mortality at 500 g/ha was 100%.

On to `O=C(Nc1cc(-c2ccc(OC(F)(F)F)cc2)cc(NC(=O)C2CC2)n1)C1CCCC1` [I-021], for which, in test [1], the mortality at 500 g/ha turned out to be 100%. Also, the mortality at 100 µg/mL in test [3] was determined as 100%.

With `CCCCC(=O)Nc1cc(-c2ccc(OC(F)(F)F)cc2)cc(NC(=O)C2CC2)n1` [I-019], the mortality at 500 g/ha in test [1] and in test [2] was 100% in each case.

Regarding `O=C(Nc1cc(-c2ccc(C(F)(F)C(F)(F)F)c(Cl)c2)cc(NC(=O)C2CC2)n1)C1CC1` [I-046], the mortality at 500 g/ha in test [1] and in test [2] was 100% in each case. Further, the mortality at 100 µg/mL in test [3] worked out at 100%.

In the case of `O=C(Nc1cc(-c2c(F)cc(C(F)(F)C(F)(F)F)cc2F)cc(NC(=O)C2CC2)n1)C1CC1` [I-041], the mortality at 500 g/ha in test [1] came out at 83%.

Turning to `O=C(Nc1cc(-c2cc(F)c(C(F)(F)C(F)(F)F)c(Cl)c2)cc(NC(=O)C2CC2)n1)C1CC1` [I-053], the mortality at 500 g/ha in test [1] and in test [2] was 100% in each case.

In the case of `CC(C)C(=O)Nc1cc(-c2ccc(OC(F)(F)F)cc2)cc(NC(=O)C2CC2)n1` [I-018], the mortality at 500 g/ha in test [1] and in test [2] was 100% each time. Further, the mortality at 100 µg/mL in test [3] was 100%.

Turning to `N#CC1(C(=O)Nc2cc(-c3ccc(OC(F)(F)F)cc3)cc(NC(=O)C3CC3)n2)CC1` [I-005], the mortality at 500 g/ha worked out at 100% in test [1] and 83% in test [2]. The mortality at 100 µg/mL in test [3] came out at 100%.

Take `O=C(Nc1cc(-c2cc(F)c(C(F)(F)C(F)(F)F)c(F)c2)cc(NC(=O)C2CC2)n1)C1CC1` [I-044]: the mortality at 500 g/ha in test [1] worked out at 100%.

With `O=C(Nc1cc(-c2ccc(OC(F)(F)F)cc2)c(Cl)c(NC(=O)C2CC2)n1)C1CC1` [I-038], the mortality at 500 g/ha in test [1] worked out at 83%.

Take `CC(C)C(=O)Nc1cc(-c2ccc(C(F)(F)C(F)(F)F)c(F)c2)cc(NC(=O)C2CC2)n1` [I-054]: the mortality at 500 g/ha in test [1] and in test [2] was 100% each time.

In the case of `O=C(Cc1ccc(C(F)(F)F)cc1)Nc1cc(-c2ccc(OC(F)(F)F)cc2)cc(NC(=O)C2CC2)n1` [I-002], the mortality at 500 g/ha in test [1] worked out at 100%.

As for `CC(C)(C#N)C(=O)Nc1cc(-c2ccc(OC(F)(F)F)cc2)cc(NC(=O)C2CC2)n1` [I-009], in test [1], the mortality at 500 g/ha is 100%.

Consider `O=C(Nc1cc(-c2ccc(OC(F)(F)F)cc2)cc(NC(=O)C2CC2(C2CC2)C2CC2)n1)C1CC1` (centres unmarked) [I-028], for which the mortality at 500 g/ha in test [1] and in test [2] was 100% in each case. Further, the mortality at 100 µg/mL in test [3] came out at 100%.

On to `CC(C)C(=O)Nc1cc(NC(=O)C(C)C)cc(-c2ccc(C(F)(F)C(F)(F)F)c(F)c2)c1` [I-051], for which the mortality at 500 g/ha in test [1] and in test [2] was 100% throughout. For the same molecule, in test [3], the mortality at 100 µg/mL was 100%.

On to `O=C(Nc1cc(-c2cc(F)c(C(F)(F)C(F)(F)F)c(F)c2F)cc(NC(=O)C2CC2)n1)C1CC1` [I-047], for which the mortality at 500 g/ha in test [1] worked out at 83%.

Take `CCC(=O)Nc1cc(-c2ccc(OC(F)(F)F)cc2)cc(NC(=O)C2CC2)n1` [I-020]: the mortality at 500 g/ha in test [1] and in test [2] was 100% in each case.

For `CCCC(=O)Nc1cc(-c2ccc(OC(F)(F)F)cc2)cc(NC(=O)C2CC2)n1` [I-023], the mortality at 500 g/ha in test [1] and in test [2] was 100% in each case. The mortality at 100 µg/mL in test [3] was 100%.

With `N#CCCC(=O)Nc1cc(-c2ccc(OC(F)(F)F)cc2)cc(NC(=O)C2CC2)n1` [I-025], the mortality at 500 g/ha in test [1] was found to be 100%; in test [2], 83%.

In the case of `CC(C)(C(=O)Nc1cc(-c2ccc(OC(F)(F)F)cc2)cc(NC(=O)C2CC2)n1)C(F)(F)F` [I-016], the mortality at 500 g/ha in test [1] and in test [2] was 100% throughout.

Consider `CCC(=O)Nc1cc(-c2ccc(C(F)(F)C(F)(F)F)c(F)c2)cc(NC(=O)C2CC2)n1` [I-055], for which the mortality at 500 g/ha in test [1] and in test [2] was 100% throughout. The mortality at 100 µg/mL in test [3] came out at 100%.

With `CCC(=O)Nc1cc(-c2ccc(C(F)(F)C(F)(F)F)c(F)c2)cc(NC(=O)CC)n1` [I-058], the mortality at 500 g/ha in test [1] and in test [2] was 100% each time.

As to `N#Cc1ccc(CC(=O)Nc2cc(NC(=O)C3CC3)cc(-c3ccc(C(F)(F)C(F)(F)F)c(F)c3)c2)cc1` [I-061], the mortality at 500 g/ha in test [1] is 83%.

In the case of `O=C(Nc1cc(-c2cc(F)c(C(F)(F)C(F)(F)F)cc2F)cc(NC(=O)C2CC2)n1)C1CC1` [I-048], the mortality at 500 g/ha is 100% in test [1] and 83% in test [2].

Take `O=C(Nc1cc(-c2ccc(C(F)(F)C(F)(F)F)c(F)c2F)cc(NC(=O)C2CC2)n1)C1CC1` [I-045]: the mortality at 500 g/ha in test [1] and in test [2] was 100% throughout.

Regarding `N#Cc1cccc(CC(=O)Nc2cc(-c3ccc(OC(F)(F)F)cc3)cc(NC(=O)C3CC3)n2)c1` [I-003], in test [1], the mortality at 500 g/ha came out at 100%. Moreover, the mortality at 100 µg/mL in test [3] is 100%.

In the case of `Cc1cc(-c2cc(NC(=O)C3CC3)nc(NC(=O)C3CC3)c2)ccc1C(F)(F)C(F)(F)F` [I-043], the mortality at 500 g/ha in test [1] and in test [2] was 100% throughout. In addition, the mortality at 100 µg/mL in test [3] was 100%.

As to `CC1(C(=O)Nc2cc(-c3ccc(OC(F)(F)F)cc3)cc(NC(=O)C3CC3)n2)CC1` [I-004], the mortality at 500 g/ha in test [1] and in test [2] was 100% in each case. The mortality at 100 µg/mL in test [3] was 100%.

For the molecule `CC(=O)Nc1cc(-c2ccc(C(F)(F)C(F)(F)F)c(F)c2)cc(NC(C)=O)n1` [I-059], the mortality at 500 g/ha in test [1] and in test [2] was 100% in each case.

Consider `CC(=O)Nc1cc(-c2ccc(C(F)(F)C(F)(F)F)c(F)c2)cc(NC(=O)C2CC2)n1` [I-056], for which the mortality at 500 g/ha in test [1] and in test [2] was 100% each time.

As to `CC(C)C(=O)Nc1cc(-c2ccc(C(F)(F)C(F)(F)F)c(F)c2)cc(NC(=O)C(C)C)n1` [I-052], the mortality at 500 g/ha in test [1] and in test [2] was 100% throughout. In test [3], the mortality at 100 µg/mL was 100%.

For the molecule `O=C(Nc1cc(-c2ccc(OC(F)(F)F)cc2)cc(NC(=O)C2(Cl)CC2)n1)C1CC1` [I-013], in test [1], the mortality at 500 g/ha worked out at 100%.

Turning to `CC(C)(C(=O)Nc1cc(-c2ccc(OC(F)(F)F)cc2)cc(NC(=O)C2CC2)n1)c1ccccc1` [I-010], in test [2], the mortality at 500 g/ha stood at 100%.

In the case of `O=C(Nc1cc(-c2cc(F)c(C(F)(F)C(F)(F)F)cc2Cl)cc(NC(=O)C2CC2)n1)C1CC1` [I-042], the mortality at 500 g/ha in test [1] was 100%.

For the molecule `N#Cc1ccc(CC(=O)Nc2cc(-c3ccc(OC(F)(F)F)cc3)cc(NC(=O)C3CC3)n2)cc1` [I-007], the mortality at 500 g/ha in test [1] amounted to 83%. In addition, the mortality at 100 µg/mL in test [3] stood at 100%.

The values are drawn from EP3284739A1, “SUBSTITUTED (HET) ARYL COMPOUNDS AS PESTICIDES” (Bayer CropScience Aktiengesellschaft, priority 2017, dated 2018).
